Test results: patent EP3952873B1 (priority 2019, dated 2020)
pKi: −log10 of the molar value. “Also recorded” adds a separate entry of the source.

Experiments:
[1] = format: in vitro ADME, mouse; details: plasma and liver microsomes; converted to parent JON-11 instantly
Protocol: (§1) Metabolic stability analysis was performed on a Bruker Avance Ultra High Performance Liquid Chromatography (UHPLC) (Bruker Daltonik, Bremen, Germany) equipped with a CTC-PAL-xt autosampler with cooled sample compartments (10 °C) and a column oven held at 40 °C. The UHPLC eluate was directed to a Bruker Evoq Elite triple quad-ropole MS equipped with a heated electrospray ionization source operated in positive ionization mode. Separation of 15 µL sample was obtained using a Phenomenex (Phenomenex, Torrance, CA, USA) Kinetex XB-C18 column (50 mm × 2.1 mm i.d., 1.7 µm particle size) equipped with a guard column. The analytes were separated using a solvent system consisting of water/acetonitrile (95:5, v/v) (eluent A) and water/acetonitrile (5:95, v/v) (eluent B); both acidified with 0.1% formic acid. The eluent flow rate was maintained at 0.4 mL/min with the following gradient elution profile: 0 min: 0% B; 5 min: 100% B; 6 min: 100% B, followed by three min equilibration at 0% B. Two ion transitions were monitored for all analytes and internal standard.
The mouse liver microsome assay was performed by transferring 25 µL of a 20 µM solution of the test compound (0.5% DMSO), dissolved in potassium phosphate monobasic buffer (pH 7.4) containing 3 mM MgCl2, to 9 wells in a microtiter plate. To each well, […] of a 0.5 mg/mL mouse liver (Sigma Aldrich) in buffer was added, and the microtiter plate were pre-incubated for 5 min at 37 °C in a plate shaker at 600 rpm. After pre-incubation, 50 µL 37 °C NADPH regenerating system, consisting of 2 mM NADP+, 10mM glucose-6-phosphate, and 2 U/mL glucose-6-phosphate dehydrogenase dissolved in buffer, was added to start the assay. In triplicates, immediately after adding the NADPH solution, 75 µL was transferred to an Eppendorf tube, containing […] ice-cold acetonitrile with 400 ng/mL internal standard (7). Similarly, samples were prepared after 30 min and 60 min incubation at 37 °C. The samples were vortexed for 30 seconds and centrifuged at 16,000 × g for 10 minutes before analyzing the supernatant. The individual analyte responses were normalized to the internal standard. Diazepam was used as positive control.
The mouse […] assay was performed by transferring 75 µL of a 10 µM solution of the test compound (0.5% DMSO), dissolved in PBS buffer (pH 7.4), to 9 wells in a microtiter plate. To each well, 75 µL mouse plasma, harvested from in-house mice into K2-EDTA tubes and centrifuged at 1,600 × g, was added. […]
(§2) The metabolic stabilities of JON-11 and the prodrugs 1a, 8-12, 19 and 20 were determined in vitro in rat plasma and rat liver microsomes. […] The corresponding loss of prodrug compounds and formation of parent drug JON-11 was determined by UHPLC-MS.

[2] = biological target: T1, GHB high-affinity binding site/CaMK2a (Rattus norvegicus, UniProt P11275); test: Rat brain membrane [3H]NCS-382 binding assay; details: for pKi: 16 nM [3H]NCS-382, rat cortical synaptic membranes, pH 6.0, 0-4 °C
T1 construct: rat (Sprague-Dawley) cortical synaptic membranes (P2 synaptosomes) were prepared; from tissue; host or cells: rat (Sprague-Dawley) cortical synaptic membranes (P2 synaptosomes)
T1 sequence (P11275 whole entry): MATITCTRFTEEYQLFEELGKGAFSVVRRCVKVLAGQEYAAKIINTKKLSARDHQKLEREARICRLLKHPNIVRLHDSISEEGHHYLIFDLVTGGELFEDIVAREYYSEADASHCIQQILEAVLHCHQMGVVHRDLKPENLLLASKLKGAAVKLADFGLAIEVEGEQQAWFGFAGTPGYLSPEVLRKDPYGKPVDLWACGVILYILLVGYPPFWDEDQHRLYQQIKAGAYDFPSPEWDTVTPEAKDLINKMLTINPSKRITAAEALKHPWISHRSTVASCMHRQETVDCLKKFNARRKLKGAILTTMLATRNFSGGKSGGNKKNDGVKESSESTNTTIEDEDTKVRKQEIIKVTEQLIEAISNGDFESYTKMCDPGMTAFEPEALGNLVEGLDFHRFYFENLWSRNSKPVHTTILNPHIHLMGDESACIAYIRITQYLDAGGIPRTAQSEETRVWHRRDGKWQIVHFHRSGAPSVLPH
Protocol: According to previously published protocols, rat (Sprague-Dawley) cortical synaptic membranes (P2 synaptosomes) were prepared and stored at -20 °C until the day of assay (Wellendorph et al., 2005). Membranes were then washed three times with binding buffer (50 mM potassium phosphate buffer pH 6.0). The binding protocol was performed in 96-well microplates. In brief, compounds were incubated with 16 nM [^3H]NCS-382 radioligand and membranes for 60 min at 0-4 °C, filtered through GF/C filter plates (PerkinElmer) using a 96-well harvester (Packard), rapidly washed three times with ice-cold binding buffer, and filter plates dried. CPM values were determined using liquid scintillation counting in a TopCount NXT Microplate Scintillation & Luminescence Counter (PerkinElmer). Curves were generated using non-linear regression (GraphPad Prism 7, GraphPad Prism Software, San Diego, CA, USA).
JON-11, related analogues, and pro-JON-11(10) were tested in the [^3H]NCS-382 binding assay (Wellendorph et al., 2005).

[3] = tested on: GHB binding sites i.e. CaMK2a; details: previously published; cited from earlier work
LAT-1 [4] = biological target: T2, LAT-1 (Homo sapiens, UniProt Q01650); test: LAT-1 [3H]leucine uptake in HEK293T cells; format: cell-based; details: HEK293T cells endogenously expressing LAT-1
T2 construct: endogenous in cells; host or cells: HEK293T
T2 sequence (Q01650 whole entry): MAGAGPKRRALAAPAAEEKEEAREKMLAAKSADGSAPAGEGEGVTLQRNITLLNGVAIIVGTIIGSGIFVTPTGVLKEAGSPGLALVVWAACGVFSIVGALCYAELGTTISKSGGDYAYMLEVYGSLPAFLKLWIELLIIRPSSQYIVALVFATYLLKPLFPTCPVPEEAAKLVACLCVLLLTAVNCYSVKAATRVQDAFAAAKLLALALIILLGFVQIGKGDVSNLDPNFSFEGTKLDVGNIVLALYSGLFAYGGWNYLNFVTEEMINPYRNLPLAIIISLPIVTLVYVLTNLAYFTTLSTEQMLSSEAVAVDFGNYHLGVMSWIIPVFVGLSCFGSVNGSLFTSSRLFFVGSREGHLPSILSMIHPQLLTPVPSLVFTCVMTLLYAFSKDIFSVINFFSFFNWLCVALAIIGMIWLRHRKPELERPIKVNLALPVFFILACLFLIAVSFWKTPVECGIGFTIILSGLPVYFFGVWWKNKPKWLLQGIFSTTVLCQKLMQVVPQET
T2 sequence (P08195 102-630 partner): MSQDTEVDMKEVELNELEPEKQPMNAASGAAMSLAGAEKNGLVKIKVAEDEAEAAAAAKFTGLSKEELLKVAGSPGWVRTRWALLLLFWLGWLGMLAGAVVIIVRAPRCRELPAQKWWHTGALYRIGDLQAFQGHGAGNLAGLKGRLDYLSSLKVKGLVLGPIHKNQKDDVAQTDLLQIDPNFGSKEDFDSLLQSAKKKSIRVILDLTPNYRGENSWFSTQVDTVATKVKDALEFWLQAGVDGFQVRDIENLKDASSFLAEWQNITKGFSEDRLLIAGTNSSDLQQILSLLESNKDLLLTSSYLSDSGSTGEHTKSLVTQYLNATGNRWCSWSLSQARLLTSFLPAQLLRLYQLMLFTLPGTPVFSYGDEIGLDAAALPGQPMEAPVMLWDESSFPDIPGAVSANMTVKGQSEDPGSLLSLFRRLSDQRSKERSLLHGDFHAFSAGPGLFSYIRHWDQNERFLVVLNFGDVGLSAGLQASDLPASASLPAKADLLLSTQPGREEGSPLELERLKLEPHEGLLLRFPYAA
Source text: (§3) To test selected prodrugs for substrate activity at LAT-1, we characterised the uptake and efflux of [^3H]leucine in the presence of compounds. For this purpose we used HEK293T cells endogenously expressing a functionally competent LAT-1, and performed assays according to Chien et al., 2018 to measure A) uptake and B) relative exchange efflux rate (L-leucine as control).

LAT-1 [5] = biological target: T2, LAT-1; test: LAT-1 relative exchange efflux of [3H]leucine in HEK293T cells; format: cell-based; details: HEK293T cells endogenously expressing LAT-1
Source text: as §3

[6] = Mouse plasma assay (metabolic stability); format: in vitro ADME; details: rat plasma as printed
Protocol: as §1, with “standard. […]” for “standard.”
as §2

in vivo = test: in vivo; parameters: species or system mice; details: C57BL/6JRj, mouse, ip, male mice, dose 10 mg/kg i.p., 30 min, read-out: B/P ratio
Protocol: To evaluate the ability of pro-JON-11 (10) and JON-11 to penetrate the blood-brain barrier, a brain-to-plasma distribution ratio (B/P ratio) was obtained. All subjects were male C57BL/6JRj mice (24-26 g, Janvier Labs, France) housed in groups of three-four with ad libitum access to food and water. The mice were maintained under diurnal conditions (12-h light/dark cycle with lights on at 7 AM) in a temperature (22±1 °C) and humidity-controlled room (50±10%). Ethical permission for the procedures used in this in vivo study was granted by the Danish Animal Experiments Inspectorate.
Compounds were dissolved in PEG-400 (Sigma) at 20% of the final required volume. The final volume was then made up by 10% (w/v) hydroxypropyl-beta-cyclodextrin (Sigma Aldrich) in sterile saline. The solution was sonicated for 5 min. The JON-11 solution was pH-adjusted to 7.4 with 0.2% 2M NaOH.
Both compounds were injected i.p. at a dose of 10 mg/kg (n=3 for each compound). […] After 30 min, the animals were sacrificed by decapitation, trunk blood was collected in EDTA-coated tubes and the brain was gently removed. Blood and tissues were temporarily stored on ice until plasma and brain homogenate preparation. Blood plasma was separated from cells by centrifugation for 10 min at 1,500 x g at 4 °C and plasma harvested. […]
Plasma and brain exposure of JON-11 and pro-JON-11 were evaluated in male mice. […]

[7] = format: in vitro ADME, mouse; details: rat liver microsomes as printed
Protocol: as §1, with “standard. […]” for “standard.”
as §2

Question: For `CCOC(=O)Cc1cn2nc(-c3ccc(Cl)cc3)ccc2n1` [1a, ethyl 2-(6-(4-chlorophenyl)imidazo[1,2-b]pyridazin-2-yl)acetate], which “chemical/metabolic stability of prodrug” value [1] is on record?
Answer: Its value is “highly chemical/metabolic unstable”.

Question: With `COc1ccc(-c2ccc3nc(CC(=O)O)cn3n2)cc1` [compound 6, 2-(6-(4-Methoxyphenyl)imidazo[1,2-b]pyridazin-2-yl)acetic acid] as the compound, how does the pKi [2] read?
Answer: The pKi was 6.08.

Question: With `CC(=O)OCOC(=O)Cc1cn2nc(-c3ccc(Cl)cc3)ccc2n1` [compound 8, Acetoxymethyl 2-(6-(4-chlorophenyl)imidazo[1,2-b]pyridazin-2-yl)acetate] as the compound, how does the “chemical/metabolic stability of prodrug” value [1] read?
Answer: Its value is “highly chemical/metabolic unstable”.

Question: With `O=C(O)Cc1cn2nc(-c3ccc(Cl)c(Cl)c3)ccc2n1` [compound 7, 2-(6-(3,4-Dichlorophenyl)imidazo[1,2-b]pyridazin-2-yl)acetic acid] as the compound, how does the pKi [2] read?
Answer: Its pKi is 6.72.

Question: Which “affinity relative to GHB” value [3] does the source give for `O=C(O)C1=CC(O)CC1` (stereo not shown) [HOCPCA, 3-hydroxycyclopent-1-enecarboxylic acid] here?
Answer: The value was 27 times.

Question: Which results are given for `N[C@@H](Cc1cccc(NC(=O)Cc2cn3nc(-c4ccc(Cl)cc4)ccc3n2)c1)C(=O)O` [compound 11, (S)-2-amino-3-(3-(2-(6-(4-chlorophenyl)imidazo[1,2-b]pyridazin-2-yl)acetamido)phenyl)propanoic acid]?
Answer: competition with [3H]leucine uptake at LAT-1 (LAT-1 [4]): LAT1 inhibitor; also recorded: competes; exchange for [3H]leucine (relative exchange efflux) (LAT-1 [5]): cannot be exchanged

Question: What does the source list for `CC(C)(C)OC(=O)Cc1cn2nc(-c3ccc(Cl)cc3)ccc2n1` [compound 10, tert.Butyl 2-(6-(4-chlorophenyl)imidazo[1,2-b]pyridazin-2-yl)acetate]?
Answer: half-life at 5 µM ([6]; pH 7.4): ~1 h; stability in plasma [6]: fair stability; displacement of radioligand binding ([2]; [3H]NCS-382, concentrations up to 10 µM): failed to displace radioligand binding; Kp at 30 min (in vivo): 2.24; stability in liver microsomes [7]: high stability

Question: With `COc1cccc(-c2ccc3nc(CC(=O)O)cn3n2)c1` [compound 5, 2-(6-(3-Methoxyphenyl)imidazo[1,2-b]pyridazin-2-yl)acetic acid] as the compound, how does the pKi [2] read?
Answer: Its pKi is 6.36.

Question: With `N[C@@H](Cc1ccc(NC(=O)Cc2cn3nc(-c4ccc(Cl)cc4)ccc3n2)cc1)C(=O)O` [compound 12, (S)-2-amino-3-(4-(2-(6-(4-chlorophenyl)imidazo[1,2-b]pyridazin-2-yl)acetamido)phenyl)propanoic acid] as the compound, how does the “competition with [3H]leucine uptake at LAT-1” value (LAT-1 [4]) read?
Answer: The value was “not”.

Question: With `CC(C)(C)C(=O)OCOC(=O)Cc1cn2nc(-c3ccc(Cl)cc3)ccc2n1` [compound 9, (2-(6-(4-Chlorophenyl)imidazo[1,2-b]pyridazin-2-yl)acetoxy)methyl pivalate] as the compound, how does the “chemical/metabolic stability of prodrug” value [1] read?
Answer: Its value is “highly chemical/metabolic unstable”.

Question: With `O=C(O)Cc1cn2nc(-c3ccc(OCc4ccccc4)cc3)ccc2n1` [compound 4, 2-(6-(4-(benzyloxy)phenyl)imidazo[1,2-b]pyridazin-2-yl)acetic acid] as the compound, how does the pKi [2] read?
Answer: Its pKi is 5.66.

Question: With `O=C(O)Cc1cn2nc(-c3cccc(Cl)c3)ccc2n1` [compound 2, 2-(6-(3-Chlorophenyl)imidazo[1,2-b]pyridazin-2-yl)acetic acid] as the compound, how does the pKi [2] read?
Answer: Its pKi is 6.64.

Question: With `O=C(O)Cc1cn2nc(-c3cccc(OCc4ccccc4)c3)ccc2n1` [compound 3] as the compound, how does the pKi [2] read?
Answer: Its pKi is 6.29.

Question: For `O=C(O)CCC(O)c1ccc(OCc2ccccc2)cc1` (stereo not shown) [BnOPh-GHB], which “affinity relative to GHB” value [3] is on record?
Answer: The value was 39 times.
